In US10772893B2, “2-(morpholin-4-yl)-1,7-naphthyridines” (BAYER PHARMA AKTIENGESELLSCHAFT, priority 2014, dated 2020) one finds IC50 data, which are given here for 31 compounds.

Common to all, as to test: Proliferation assay, crystal violet staining
The test system of assay [1] is Caco-2 cells. The format is cell-based. The conditions noted are these: Homo sapiens, Caco-2, 96 h, 4 days incubation, read-out: Inhibition of Caco-2 cell proliferation.
Assay [2] has as its system HeLa-MaTu-ADR cells. The format is cell-based. The conditions noted are these: Homo sapiens, 96 h, 4 days incubation, read-out: Inhibition of HeLa-MaTu-ADR cell proliferation.
For assay [3], the system named is NCI-H460 cells. The conditions noted are these: Homo sapiens, NCI-H460, 96 h, read-out: Inhibition of NCI-H460 cell proliferation, NCI-H460 cells, 4 days incubation.
Assay [4] relates to DU145 cells. The conditions noted are these: Homo sapiens, DU-145, 96 h, read-out: Inhibition of DU145 cell proliferation, DU145 cells, 4 days incubation.
Assay [5] concerns HeLa cells. The conditions noted are these: Homo sapiens, 96 h, read-out: Inhibition of HeLa cell proliferation, HeLa cells, 4 days incubation.

Structures can show the parent of a compound that is named as a salt.

Take `CN=S(C)(=O)c1ccc(-c2cc(N3CCOCC3)nc3c(-c4ccn[nH]4)nccc23)cc1` (stereo not shown) [Example 5, 4-(4-(N,S-dimethylsulfonimidoyl)phenyl)-2-[morpholin-4-yl]-8-(1H-pyrazol-5-yl)-1,7-naphthyridine]: the IC50 in assay [1] was 2190 nM; in assay [2], greater than 3000 nM; in assay [3], 641 nM; in assay [4], 368 nM.
For the compound `CS(=O)(=O)c1ccc(-c2cc(N3CCOCC3)nc3c(-c4cc[nH]n4)nccc23)cc1` [Example 7, 4-(4-methanesulphonylphenyl)-2-(morpholin-4-yl)-8-(1H-pyrazol-3-yl)-[1,7]naphthyridine], the IC50 turned out to be 5950 nM in assay [1], 1020 nM in assay [3], 1330 nM in assay [5] and 1590 nM in assay [4].
For the compound `CS(=O)(=O)c1ccccc1-c1cc(N2CCOCC2)nc2c(-c3cc[nH]n3)nccc12` [Example 8, 4-(2-methanesulphonylphenyl)-2-(morpholin-4-yl)-8-(1H-pyrazol-3-yl)-[1,7]naphthyridine Hydrochloride], the IC50 in assay [1] was greater than 3000 nM; in assay [2] it was greater than 3000 nM; in assay [3] it was 909 nM; in assay [5], 2260 nM; in assay [4], 2050 nM.
For the compound `C=C(C)c1cc(N2CCOCC2)nc2c(-c3cc[nH]n3)nccc12` [Example 10, 4-Isopropenyl-2-(morpholin-4-yl)-8-(1H-pyrazol-3-yl)-[1,7]naphthyridine], the IC50 worked out at 1460 nM in assay [1]; 1300 nM in assay [2]; 447 nM in assay [3]; 496 nM in assay [5]; 827 nM in assay [4].
For `CS(=O)(=O)c1cccc(-c2cc(N3CCOCC3)nc3c(-c4cc[nH]n4)nccc23)c1` [Example 15, 4-(3-methanesulphonylphenyl)-2-(morpholin-4-yl)-8-(1H-pyrazol-3-yl)-[1,7]naphthyridine] the same measures were 1720 nM, greater than 3000 nM, 528 nM, 1410 nM and 817 nM.
Regarding `CS(=O)(=O)c1ccc(-c2cc(N3CCOCC3)nc3c(-c4ccn[nH]4)nccc23)c(F)c1` [Example 24], the IC50 was 833 nM in assay [1], 3410 nM in assay [2], 378 nM in assay [3] and 1350 nM in assay [4].
On to `C[C@@H]1COCCN1c1cc(-c2ccc(S(C)(=O)=O)cc2)c2ccnc(-c3cc[nH]n3)c2n1` [Example 26, 4-(4-methanesulphonylphenyl)-2-((R)-3-methylmorpholin-4-yl)-8-(2H-pyrazol-3-yl)-[1,7]naphthyridine], for which the IC50 in assay [1] is greater than 1000 nM; in assay [2], greater than 1000 nM; in assay [3] it was 586 nM; in assay [5], 296 nM; in assay [4], 725 nM.
In the case of `C[C@@H]1COCCN1c1cc(C2CC2)c2ccnc(-c3cc[nH]n3)c2n1` [Example 29], the IC50 turned out to be 577 nM in assay [1]; 498 nM in assay [2]; 243 nM in assay [3]; 394 nM in assay [5]; 291 nM in assay [4].
With `C[C@@H]1COCCN1c1cc(S(C)(=O)=O)c2ccnc(-c3ccn[nH]3)c2n1` [Example 33, 2-[(3R)-3-methylmorpholin-4-yl]-4-(methylsulfonyl)-8-(1H-pyrazol-5-yl)-1,7-naphthyridine], the IC50 in assay [1] was 653 nM; in assay [2], greater than 3000 nM; in assay [3], 269 nM; in assay [4] it was 1010 nM.
With `CS(=O)(=O)C1(c2cc(N3CCOCC3)nc3c(-c4ccn[nH]4)nccc23)CC1` [Example 39, 4-(1-methanesulphonycyclopropyl)-2-(morpholin-4-yl)-8-(2H-pyrazol-3-yl)-[1,7]naphthyridine], the IC50 in assay [3] turned out to be 400 nM; in assay [5] it was 1050 nM; in assay [4], 837 nM.
Consider `C[C@@H]1COCCN1c1cc(OCCCCN)c2ccnc(-c3ccn[nH]3)c2n1` [Example 57, 4-({2-[(3R)-3-methylmorpholin-4-yl]-8-(1H-pyrazol-5-yl)-1,7-naphthyridin-4-yl}oxy)butan-1-amine], for which the IC50 worked out at 374 nM in assay [3] and 1560 nM in assay [4].
With `Clc1cc(N2CCOCC2)nc2c(-c3cc[nH]n3)nccc12` [Example 62, 4-chloro-2-morpholin-4-yl-8-(1H-pyrazol-3-yl)-[1,7]naphthyridine], the IC50 in assay [3] is greater than 3000 nM; in assay [5], 164 nM.
In the case of `CSc1cc(N2CCOC[C@H]2C)nc2c(-c3ccn[nH]3)nccc12` [Example 63, 2-[(3R)-3-methylmorpholin-4-yl]-4-(methylsulfanyl)-8-(1H-pyrazol-5-yl)-1,7-naphthyridine], the IC50 in assay [1] is 1540 nM; in assay [2], 1530 nM; in assay [3], 308 nM; in assay [4], 915 nM.
For `C[C@@H]1COCCN1c1cc(N=S2(=O)CCOCC2)c2ccnc(-c3ccn[nH]3)c2n1` [Example 64, N-{2-[(3R)-3-methylmorpholin-4-yl]-8-(1H-pyrazol-5-yl)-1,7-naphthyridin-4-yl}-1,4λ^4-oxathian-4-imine 4-oxide] the same measures were 844 nM, 1170 nM, 92.3 nM and 506 nM.
Take `C[C@@H]1COCCN1c1cc(N2CCNCC2)c2ccnc(-c3ccn[nH]3)c2n1` [Example 66, 2-[(3R)-3-methylmorpholin-4-yl]-4-(piperazin-1-yl)-8-(1H-pyrazol-5-yl)-1,7-naphthyridine]: the IC50 was 3350 nM in assay [1] and 127 nM in assay [3].
Turning to `c1cc(-c2nccc3c(N4CCn5ccnc5C4)cc(N4CCOCC4)nc23)[nH]n1` [Example 169, 4-(5,6-dihydroimidazo[1,2-a]pyrazin-7(8H)-yl)-2-(morpholin-4-yl)-8-(1H-pyrazol-5-yl)-1,7-naphthyridine], the IC50 is greater than 3000 nM in assay [1], greater than 3000 nM in assay [2] and 731 nM in assay [5].
For `Fc1ccccc1-c1cc(N2CCOCC2)nc2c(-c3ccn[nH]3)nccc12` [Example 327, 4-(2-fluorophenyl)-2-(morpholin-4-yl)-8-(1H-pyrazol-5-yl)-1,7-naphthyridine], the IC50 in assay [5] was found to be 1890 nM.
In the case of `O=C(NC1CC1)c1cccc(-c2cc(N3CCOCC3)nc3c(-c4ccn[nH]4)nccc23)c1` [Example 330, N-cyclopropyl-3-[2-(morpholin-4-yl)-8-(1H-pyrazol-5-yl)-1,7-naphthyridin-4-yl]benzamide], in assay [5], the IC50 is greater than 3000 nM.
Same read-out and setting: the same measure for `COc1ccc(-c2cc(N3CCOCC3)nc3c(-c4ccn[nH]4)nccc23)c(OC)c1` [Example 332, 4-(2,4-dimethoxyphenyl)-2-(morpholin-4-yl)-8-(1H-pyrazol-5-yl)-1,7-naphthyridine]: greater than 3000 nM; for `Clc1ccccc1-c1cc(N2CCOCC2)nc2c(-c3ccn[nH]3)nccc12` [Example 333, 4-(2-chlorophenyl)-2-(morpholin-4-yl)-8-(1H-pyrazol-5-yl)-1,7-naphthyridine]: greater than 3000 nM.
On the same count and under the same terms, to `Cc1ccc(C)c(-c2cc(N3CCOCC3)nc3c(-c4ccn[nH]4)nccc23)c1` [Example 334, 4-(2,5-dimethylphenyl)-2-(morpholin-4-yl)-8-(1H-pyrazol-5-yl)-1,7-naphthyridine] belongs greater than 3000 nM; to `Nc1cccc(-c2cc(N3CCOCC3)nc3c(-c4ccn[nH]4)nccc23)c1` [Example 335, 3-[2-(morpholin-4-yl)-8-(1H-pyrazol-5-yl)-1,7-naphthyridin-4-yl]aniline], 2960 nM.
Consider `Oc1cccc(-c2cc(N3CCOCC3)nc3c(-c4ccn[nH]4)nccc23)c1` [Example 337, 3-[2-(morpholin-4-yl)-8-(1H-pyrazol-5-yl)-1,7-naphthyridin-4-yl]phenol], for which the IC50 in assay [5] turned out to be 1710 nM.
Still for that read-out and setting: to `COc1ccc(F)cc1-c1cc(N2CCOCC2)nc2c(-c3ccn[nH]3)nccc12` [Example 339, 4-(5-fluoro-2-methoxyphenyl)-2-(morpholin-4-yl)-8-(1H-pyrazol-5-yl)-1,7-naphthyridine] belongs greater than 3000 nM; to `Fc1ccc(-c2cc(N3CCOCC3)nc3c(-c4ccn[nH]4)nccc23)c(F)c1` [Example 340, 4-(2,4-difluorophenyl)-2-(morpholin-4-yl)-8-(1H-pyrazol-5-yl)-1,7-naphthyridine], 2950 nM; to `Fc1cccc(-c2cc(N3CCOCC3)nc3c(-c4ccn[nH]4)nccc23)c1F` [Example 341, 4-(2,3-difluorophenyl)-2-(morpholin-4-yl)-8-(1H-pyrazol-5-yl)-1,7-naphthyridine], 1590 nM.
Still for that read-out and setting: the same measure for `Nc1ccccc1-c1cc(N2CCOCC2)nc2c(-c3ccn[nH]3)nccc12` [Example 343, 2-[2-(morpholin-4-yl)-8-(1H-pyrazol-5-yl)-1,7-naphthyridin-4-yl]aniline]: 1710 nM; for `c1ccc(-c2ccccc2-c2cc(N3CCOCC3)nc3c(-c4ccn[nH]4)nccc23)cc1` [Example 345, 4-(biphenyl-2-yl)-2-(morpholin-4-yl)-8-(1H-pyrazol-5-yl)-1,7-naphthyridine]: greater than 3000 nM; for `c1cc(-c2cc(N3CCOCC3)nc3c(-c4ccn[nH]4)nccc23)c2cccnc2c1` [Example 349, 2-(morpholin-4-yl)-8-(1H-pyrazol-5-yl)-4-(quinolin-5-yl)-1,7-naphthyridine]: greater than 3000 nM.
On the same count and under the same terms, to `c1cncc(-c2cc(N3CCOCC3)nc3c(-c4ccn[nH]4)nccc23)c1` [Example 350, 2-(morpholin-4-yl)-8-(1H-pyrazol-5-yl)-4-(pyridin-3-yl)-1,7-naphthyridine] belongs greater than 3000 nM; to `COc1cc(-c2cc(N3CCOCC3)nc3c(-c4ccn[nH]4)nccc23)ccn1` [Example 351, 4-(2-methoxypyridin-4-yl)-2-(morpholin-4-yl)-8-(1H-pyrazol-5-yl)-1,7-naphthyridine], 3000 nM.
